Assay results as given in ChEMBL document CHEMBL3232923, “Illudins C2 and C3 stimulate lipolysis in 3T3-L1 adipocytes and suppress adipogenesis in 3T3-L1 preadipocytes” (J Nat Prod, 2014).
Calls of active or inactive are those of the source. No cut-off for these calls is given here.

Key:
3T3-L1 [1] = assay: Stimulation of lipolysis in mouse 3T3L1 cells at 0.25 mM after 48 hrs by glycerol release assay; type: functional, cell-based
3T3-L1 [2] = assay: Stimulation of lipolysis in mouse 3T3L1 cells after 48 hrs by glycerol release assay in presence of p38 MAPK inhibitor SB203580; type: functional, cell-based
[3] = Reduction of […] mRNA expression in mouse 3T3L1 cells at 1 to 10 uM after 24 hrs by […]; type: functional, cell-based; conditions: 3T3-L1
[4] = Cytotoxicity against mouse 3T3L1 cells at 1 to 10 uM after 48 hrs by MTT assay; type: cell-based; conditions: 3t3-l1, 48 h
3T3-L1 [5] = assay: Inhibition of mouse 3T3L1 cell differentiation assessed as reduction in PPARgamma gene expression after 2 days by RT-PCR analysis; type: functional, cell-based
3T3-L1 [6] = assay: Inhibition of mouse 3T3L1 cell differentiation assessed as reduction in intracellular lipid accumulation after 8 days by Oil Red O staining method; type: functional, cell-based
3T3-L1 [7] = assay: Stimulation of lipolysis in mouse 3T3L1 cells after 48 hrs by glycerol release assay in presence of PKA inhibitor H89; type: functional, cell-based
3T3-L1 [8] = assay: Stimulation of lipolysis in mouse 3T3L1 cells after 48 hrs by glycerol release assay in presence of JNK inhibitor SP600125; type: functional, cell-based
3T3-L1 [9] = assay: Inhibition of mouse 3T3L1 cell differentiation assessed as reduction in PPARgamma protein level after 8 days by immunoblotting; type: functional, cell-based
3T3-L1 [10] = assay: Induction of AMPK-mediated HSL phosphorylation at S565 in mouse 3T3L1 cells at 10 uM after 24 to 48 hrs by immunoblotting; type: cell-based
3T3-L1 [11] = assay: Reduction of […] protein level in mouse 3T3L1 cells at 10 uM after 24 to 48 hrs by immunoblotting; type: functional, cell-based
[12] = Reduction of […] mRNA expression in mouse 3T3L1 cells after 24 hrs by RT-PCR analysis; type: functional, cell-based; conditions: 3T3-L1
3T3-L1 [13] = assay: Induction of PKA-mediated HSL phosphorylation at S660 in mouse 3T3L1 cells at 10 uM after 24 to 48 hrs by immunoblotting; type: cell-based
3T3-L1 [14] = assay: Reduction of lipid content in mature mouse 3T3L1 cells after 7 days by Oil Red O staining method; type: functional, cell-based
3T3-L1 [15] = assay: Stimulation of lipolysis in mouse 3T3L1 cells after 48 hrs by glycerol release assay; type: functional, cell-based
3T3-L1 [16] = assay: Inhibition of mouse 3T3L1 cell differentiation assessed as reduction in EBPalpha gene expression after 2 days by RT-PCR analysis; type: functional, cell-based
3T3-L1 [17] = assay: Stimulation of lipolysis in mouse 3T3L1 cells at 10 uM after 48 hrs by glycerol release assay; type: functional, cell-based
3T3-L1 [18] = assay: Reduction of HSL protein level in mouse 3T3L1 cells at 10 uM after 24 to 48 hrs by immunoblotting; type: functional, cell-based
[19] = Reduction of perilipin mRNA expression in mouse 3T3L1 cells after 24 hrs by RT-PCR analysis; type: functional, cell-based; conditions: 3T3-L1
3T3-L1 [20] = assay: Stimulation of lipolysis in mouse 3T3L1 cells after 48 hrs by glycerol release assay in presence of ERK inhibitor PD98059; type: functional, cell-based
3T3-L1 [21] = assay: Reduction of perilipin protein level in mouse 3T3L1 cells at 10 uM after 24 to 48 hrs by immunoblotting; type: functional, cell-based
3T3-L1 [22] = assay: Inhibition of mouse 3T3L1 cell differentiation assessed as reduction in EBPalpha protein level after 8 days by immunoblotting; type: functional, cell-based
3T3-L1 [23] = assay: Induction of PKA-mediated HSL phosphorylation at S563 in mouse 3T3L1 cells at 10 uM after 24 to 48 hrs by immunoblotting; type: cell-based
[24] = Reduction of HSL mRNA expression in mouse 3T3L1 cells at 1 to 10 uM after 24 hrs by RT-PCR analysis; type: functional, cell-based; conditions: 3T3-L1

Structure (SMILES)	Activity (3T3-L1 [2])	Activity [3]	Activity [4]	inhibition (3T3-L1 [5])	inhibition (3T3-L1 [6])	Activity (3T3-L1 [7])	Activity (3T3-L1 [8])	inhibition (3T3-L1 [9])	Activity (3T3-L1 [10])	Activity (3T3-L1 [11])	Activity [12]	Activity (3T3-L1 [13])	Activity (3T3-L1 [14])	Activity (3T3-L1 [15])	inhibition (3T3-L1 [16])	Activity (3T3-L1 [17])	Activity (3T3-L1 [18])	Activity [19]	Activity (3T3-L1 [20])	Activity (3T3-L1 [21])	further results
CC(C)Cn1c(=O)n(C)c(=O)c2nc[nH]c21	–	–	–	–	–	–	–	–	–	–	–	–	–	–	–	–	–	–	–	–	Activity (3T3-L1 [1]): Active
C=C1C(=O)C2=C(C[C@](C)(CO)C2)[C@](C)(O)C12CC2	Active	Active	Non-toxic	Active	Dose-dependent effect	inactive	Active	Dose-dependent effect	inactive	Active	Dose-dependent effect	Active	Dose-dependent effect	Dose-dependent effect	Active	Active	Active	Dose-dependent effect	inactive	Active	inhibition (3T3-L1 [22]): Dose-dependent effect; Activity (3T3-L1 [23]): Active; Activity [24]: Active
CC(C)NCC(O)c1ccc(O)c(O)c1 (stereo not drawn)	–	–	–	–	–	–	–	–	–	–	–	–	–	–	–	Active	–	–	–	–	–
C=C1C(=O)C2=C(C[C@@](C)(CO)C2)[C@](C)(O)C12CC2	Active	Active	Non-toxic	Active	Dose-dependent effect	inactive	Active	Dose-dependent effect	inactive	Active	Dose-dependent effect	Active	Dose-dependent effect	Dose-dependent effect	Active	Active	Active	Dose-dependent effect	inactive	Active	inhibition (3T3-L1 [22]): Dose-dependent effect; Activity (3T3-L1 [23]): Active; Activity [24]: Active
